“Also recorded” adds a separate entry of the source. Read-outs that look alike come from different tables or passages of the source.
Experiments:
human M5R = target: T1, human M5R (Homo sapiens, UniProt P08912); test: NFAT-luciferase assay, M5; type: cell-based
T1 construct: expressed in transfected cells; host or cells: HEK-293T
T1 sequence (P08912 1-532): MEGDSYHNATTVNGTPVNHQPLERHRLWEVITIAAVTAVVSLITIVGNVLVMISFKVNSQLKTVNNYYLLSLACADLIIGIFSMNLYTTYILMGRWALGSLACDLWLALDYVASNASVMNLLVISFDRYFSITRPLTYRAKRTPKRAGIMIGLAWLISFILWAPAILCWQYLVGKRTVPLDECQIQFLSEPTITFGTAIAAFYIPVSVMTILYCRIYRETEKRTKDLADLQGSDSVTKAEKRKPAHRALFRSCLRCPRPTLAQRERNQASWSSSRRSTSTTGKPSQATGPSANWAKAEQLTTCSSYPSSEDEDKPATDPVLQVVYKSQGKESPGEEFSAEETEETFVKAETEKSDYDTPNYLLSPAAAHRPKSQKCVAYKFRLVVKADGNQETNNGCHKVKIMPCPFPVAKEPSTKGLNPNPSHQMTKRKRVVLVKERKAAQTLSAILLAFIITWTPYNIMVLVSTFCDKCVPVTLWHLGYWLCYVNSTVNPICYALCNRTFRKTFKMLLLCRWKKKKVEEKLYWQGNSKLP
Description: (§1) To measure the agonist or antagonist activity at M1, M3 and M5 muscarinic receptor, NFAT-luciferase activity was performed in HEK-293T cells (procured from NCCS, Pune) by co-transfecting with human M1R or M3R or M5R and pGL4.30 (luc2P/NFAT-RE/Hygro; Promega Corp,) in 96 well format. The transfected cells were incubated at 37° C. in tissue culture incubator with 5% CO2 for 14-16 hours. To determine the if the test compounds are agonist, the transfected cells were treated with either 20 μl/well of carbamoyl choline (as a positive control) at various concentrations (10000 nM to 0.01 nM) or with various concentrations of test compounds (in triplicates) and were further incubated for 12 hrs in a humidified tissue culture incubator at 37° C. with 5% CO2. For antagonist mode assay, test compound incubation was followed by addition of 20 μl of 7 μM carbamoylcholine (agonist) to the plate. Following 12-14 hrs of drug treatment, media from the plate was aspirated and 100 μl of sodium luciferin solution (10 mg/ml) was added and luminescence per well was recorded using luminescence plate reader (BMG Labtech).

human M1R = target: T2, human M1R (Homo sapiens, UniProt P11229); test: NFAT-luciferase assay, M1; type: cell-based
T2 construct: expressed in transfected cells; host or cells: HEK-293T
T2 sequence (P11229 1-460): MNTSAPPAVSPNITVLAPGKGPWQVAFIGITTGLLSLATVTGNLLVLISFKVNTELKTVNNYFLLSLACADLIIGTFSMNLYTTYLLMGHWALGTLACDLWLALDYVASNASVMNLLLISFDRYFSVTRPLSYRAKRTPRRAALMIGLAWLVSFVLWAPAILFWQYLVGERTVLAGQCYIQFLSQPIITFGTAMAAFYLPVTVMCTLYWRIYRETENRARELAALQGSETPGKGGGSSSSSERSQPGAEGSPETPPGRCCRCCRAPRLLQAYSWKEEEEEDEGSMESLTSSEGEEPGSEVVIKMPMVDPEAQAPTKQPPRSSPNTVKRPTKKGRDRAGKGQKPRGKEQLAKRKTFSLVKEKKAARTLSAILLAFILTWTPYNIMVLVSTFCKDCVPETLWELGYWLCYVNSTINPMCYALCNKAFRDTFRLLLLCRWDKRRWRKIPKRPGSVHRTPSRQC
Description: as §1

human M3R = target: T3, human M3R (Homo sapiens, UniProt P20309); test: NFAT-luciferase assay, M3; type: cell-based
T3 construct: expressed in transfected cells; host or cells: HEK-293T
Description: as §1

[1] = tested on: Scopolamine induced memory deficit; test: Novel object recognition (NOR) test, scopolamine induced memory deficit; type: in vivo, mice; conditions: RG-02 10 mg/kg i.p. + scopolamine 0.5 mg/kg i.p., 7th day
From the text: (§2) All animal experiments and procedures were executed in accordance with the guidelines established in the guide for the care and use of laboratory animals and were approved by the institutional animal ethics committee (IAEC) of CSIR-Central Drug Research Institute, Lucknow, India. In this study, male C57BL/6J mice (6-8 weeks old) weighing 22-25 g were used. They were housed on a 12-h light/dark cycle (lights on at 8.00 am) and food and water were provided ad libitum. Animals were acclimatized to the experimental room 30 minutes prior to the beginning of behavioral procedures. For experimental purpose, animals were randomly divided into four groups: vehicle, RG-02, scopolamine and scopolamine along with RG-02. In scopolamine along with RG-02 group, RG-02 (10 mg/kg, i.p) was injected thirty minutes prior to the scopolamine (0.5 mg/kg, i.p.) injections.
The NOR test was performed according to the protocol introduced by Ennaceur and Delacour (Ennaceur & Delacour, 1988) with slight modification.
The NOR task procedure consisted of three sessions—[…], familiarization and test session. During habituation session, the mouse was placed in an open field (Square box of 40×40×40 cm), facing the wall of the arena, and allowed to explore the entire arena for 10 minutes. Following habituation period of 10 minutes, the mouse was returned to its home cage.
Between every […] session, the whole arena was cleaned with 10% ethanol to reduce olfactory cues. […] During this session, the test animal was placed in the arena and was allowed to explore the entire arena with familiar and novel object, and its activity was also video recorded. To determine the retention of object memory, the recorded videos of test session were analyzed by independent observer who was unknown to treatment of mice to calculate the time spent in exploring both objects. Data are presented as % time of exploration of familiar or novel object, and discrimination index was calculated as per following equation: (Tn−Tf)/Tt: Discrimination Index […]

C57BL/6 mice = test: Locomotor activity in open field arena; type: in vivo; conditions: 10 mg/kg i.p., acute, 60 minutes following injection, vs vehicle, p<0.05
From the text: as §2
Locomotor activity was tested according to the previously published protocol (Kelly et al, 1998) with slight modifications. Briefly, mice were put in the centre of a clear Plexiglas (40×40×30 cm) open-field arena and were allowed to explore the entire arena for 30 minutes. After 30 minutes of exploration, animals were injected with either RG-02 (10 mg/kg; i.p.) or 0.9% normal saline and were allowed to explore the arena for further 60 minutes. […]

human M2R = target: T4, human M2R (Homo sapiens, UniProt P08172); test: GloSensor cAMP assay (Gi-mediated cAMP inhibition); type: cell-based; conditions: for IC50: agonist
T4 construct: expressed in transfected cells; host or cells: HEK-293T
T4 sequence (P08172 1-466): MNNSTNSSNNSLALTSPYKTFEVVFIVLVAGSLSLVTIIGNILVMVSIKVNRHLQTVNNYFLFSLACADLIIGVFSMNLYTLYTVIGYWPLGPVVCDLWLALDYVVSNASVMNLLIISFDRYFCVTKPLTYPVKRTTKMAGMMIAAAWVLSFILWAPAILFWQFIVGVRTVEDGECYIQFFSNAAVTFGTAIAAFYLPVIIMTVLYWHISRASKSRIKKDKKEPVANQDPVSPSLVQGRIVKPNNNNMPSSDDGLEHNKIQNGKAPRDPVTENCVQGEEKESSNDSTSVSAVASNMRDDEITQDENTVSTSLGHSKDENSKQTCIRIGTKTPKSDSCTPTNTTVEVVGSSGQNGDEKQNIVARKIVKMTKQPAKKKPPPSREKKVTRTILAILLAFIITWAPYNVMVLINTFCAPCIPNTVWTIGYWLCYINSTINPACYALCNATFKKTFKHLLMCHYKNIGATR
Description: To measure M2 muscarinic receptor induced (Gi-mediated) cAMP inhibition, HEK-293T cells (procured from NCCS, Pune) were co-transfected with human M2R and luciferase based cAMP biosensor (pGloSensor™-22F plasmid; Promega) using PEImax method of transfection in the ratio of 1:1. The transfected cells were incubated at 37° C. in tissue culture incubator with 5% CO2 for 14-16 hours. For GloSensor cAMP assay, after overnight incubation, media from the plate was aspirated and 100 μl of sodium luciferin solution in drug buffer (1×HBSS (pH7.4) and 20 mM HEPES) was added to the cell plates. The plates were then incubated at 37° C. in tissue culture incubator with 5% CO2 for 90 minutes. After incubation, cells were treated with 20 μl of 6× diluted standard carbamoyl choline (10000 nM to 0.01 nM) along with test compounds (in triplicates) and were incubated in a humidified tissue culture incubator at 37° C. with 5% CO2 for 10-15 minutes to get a steady state condition. Ligand incubation was followed by addition of 20 μl of 7×(70 μM) forskoline (FSK) to the plate. FSK incubation was followed by incubation at 37° C. for 10-15 minutes and measurement of luminescence per well using luminescence plate reader (BMG Labtech). The results were plotted as inhibition of FSK stimulated cAMP response (relative luminescence units) using nonlinear regression analysis by Graph-Pad prism V.

[2] = tested on: Scopolamine induced memory deficit; test: Morris water maze (MWM) test, scopolamine induced learning deficit; type: in vivo, mice
From the text: as §2
The Morris water maze (MWM) test was performed according to Morris 1984, with slight modifications. Circular pool of dimensions-100 cm diameter and 45 cm depth, which was filled up to 25 cm from bottom with white colour water. Temperature of water was adjusted to 24-25° C. Pool was divided into four quadrants and a square platform of 10×10 cm in was placed into the tank at a fixed location in the centre of one of the four imaginary quadrants. Training sessions were conducted for 3 consecutive days and on 4th day a probe trial was performed. During training session, mouse was gently placed into the water facing the edge of the pool of one of the quadrant. If the mouse was able to find the platform before the 60 sec cut-off, it was allowed to stay over the platform for 5 more seconds followed by returning to its home cage. […] Total three trials/day were run for each mouse with minimum interval of 10-15 minutes between two trials, and latency to reach the platform was calculated. On the fourth day, for the probe trial, the platform was removed and the time spent in respective quadrant was calculated.

T3 sequence (P20309 whole entry): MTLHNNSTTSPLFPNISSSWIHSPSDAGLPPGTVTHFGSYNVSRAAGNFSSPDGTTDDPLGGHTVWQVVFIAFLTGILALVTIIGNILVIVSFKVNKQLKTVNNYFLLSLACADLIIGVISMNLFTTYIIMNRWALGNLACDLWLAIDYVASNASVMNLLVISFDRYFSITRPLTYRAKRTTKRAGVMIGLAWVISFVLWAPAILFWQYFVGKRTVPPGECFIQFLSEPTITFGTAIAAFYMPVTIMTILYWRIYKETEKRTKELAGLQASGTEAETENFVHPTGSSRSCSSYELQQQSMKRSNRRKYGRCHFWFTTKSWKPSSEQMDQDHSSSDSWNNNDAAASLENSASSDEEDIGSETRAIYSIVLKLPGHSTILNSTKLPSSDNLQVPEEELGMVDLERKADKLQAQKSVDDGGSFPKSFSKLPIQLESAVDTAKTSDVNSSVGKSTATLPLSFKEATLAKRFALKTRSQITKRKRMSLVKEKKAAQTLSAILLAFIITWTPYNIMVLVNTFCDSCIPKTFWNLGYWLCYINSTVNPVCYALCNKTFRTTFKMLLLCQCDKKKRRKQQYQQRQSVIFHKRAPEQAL

Row | antagonist activity at M5 receptor (in words) (human M5R) | IC50 (human M5R; M5, antagonist, N.A. = not active, read-out: pIC50/pEC50 (Mean ± SEM) M5 (converted)) [nM] | antagonist activity at M1 receptor (in words) (human M1R) | IC50 (human M1R; M1, antagonist, N.A. = not active, read-out: pIC50/pEC50 (Mean ± SEM) M1 (converted)) [nM] | antagonist activity at M3 receptor (in words) (human M3R) | Structure (SMILES) | selectivity among muscarinic receptors (in words) (human M3R; M1, M3 and M5 antagonist profiling) | percent time exploration for novel object ([1]; vs scopolamine alone / vehicle) | novel object discrimination index ([1]; vs scopolamine alone, p<0.05) | locomotor activity (total horizontal distance travelled) (C57BL/6 mice) | agonist activity at M2 receptor (in words) (human M2R) | IC50 (human M2R; M2, N.A. = not active, read-out: pIC50/pEC50 (Mean ± SEM) M2 (converted)) [nM] | IC50 (human M2R; read-out: IC50 at M2 receptor) [nM] | time spent in platform quadrant (probe trial) ([2]; RG-02 10 mg/kg i.p. + scopolamine 0.5 mg/kg i.p., day 4, vs scopolamine alone) | learning the location of hidden platform ([2]; RG-02 alone 10 mg/kg i.p., vs vehicle)
1 | very modest activity | 269 | very modest activity | 129 | very modest activity | O=C1[C@@H]2c3ccccc3[C@H]3N2[C@@H]2CCCC(OS(=O)(=O)C(F)(F)F)=C2C[C@@]13S(=O)(=O)c1ccccc1 [RG-12, (6S,6aR,11S,12aR)-13-oxo-6-(phenylsulfonyl)-1,2,3,5,6,6a,11,12a-octahydro-6,11-methanoisoindolo[2,1-a]quinolin-4-yl trifluoromethanesulfonate] | nonselective muscarinic receptor antagonist |  |  |  |  |  |  |  | 
2 |  |  |  |  |  | O=C1CCC[C@@H]2[C@@H]1C[C@@]1(S(=O)(=O)c3ccccc3)C(=O)[C@@H]3c4ccccc4[C@H]1N32 [RG-02, (4aS,6S,6aR,11S,12aR)-6-(phenylsulfonyl)-1,2,3,4a,5,6,6a,12a-octahydro-6,11-methanoisoindolo[2,1-a]quinoline-4,13(11H)-dione] |  | significantly increased | significantly blocked the negative effect of scopolamine on novel object discrimination; also recorded: significantly increased | significantly increased locomotor activity; also recorded: neurostimulatory effect; also recorded: significant increase in locomotor activity | most potent agonist at M2 receptor; also recorded: selective M2 muscarinic receptor agonist with high activity | 4.17 | 4 | increased the time spent in the quadrant with platform; also recorded: significantly increased | no per se effect
